Data on 37 compounds can be found in patent publication US20060063759A1, “Tricyclic steroid hormone nuclear receptor modulators” (priority 2002, published 2006).

pKi: −log10 of the molar value. Where only a bound is given, the exact number is not on record here.

Experiment [1] deals with T1, human MR (Homo sapiens, UniProt P08235).
T1 construct: The full length human MR gene is cloned from a human kidney or human brain cDNA library; His tag from the pAcHLT vector (own knowledge); made in house; host or cells: Sf9 insect cells (baculovirus, pAcHLT transfer vector)
T1 sequence (P08235 1-984): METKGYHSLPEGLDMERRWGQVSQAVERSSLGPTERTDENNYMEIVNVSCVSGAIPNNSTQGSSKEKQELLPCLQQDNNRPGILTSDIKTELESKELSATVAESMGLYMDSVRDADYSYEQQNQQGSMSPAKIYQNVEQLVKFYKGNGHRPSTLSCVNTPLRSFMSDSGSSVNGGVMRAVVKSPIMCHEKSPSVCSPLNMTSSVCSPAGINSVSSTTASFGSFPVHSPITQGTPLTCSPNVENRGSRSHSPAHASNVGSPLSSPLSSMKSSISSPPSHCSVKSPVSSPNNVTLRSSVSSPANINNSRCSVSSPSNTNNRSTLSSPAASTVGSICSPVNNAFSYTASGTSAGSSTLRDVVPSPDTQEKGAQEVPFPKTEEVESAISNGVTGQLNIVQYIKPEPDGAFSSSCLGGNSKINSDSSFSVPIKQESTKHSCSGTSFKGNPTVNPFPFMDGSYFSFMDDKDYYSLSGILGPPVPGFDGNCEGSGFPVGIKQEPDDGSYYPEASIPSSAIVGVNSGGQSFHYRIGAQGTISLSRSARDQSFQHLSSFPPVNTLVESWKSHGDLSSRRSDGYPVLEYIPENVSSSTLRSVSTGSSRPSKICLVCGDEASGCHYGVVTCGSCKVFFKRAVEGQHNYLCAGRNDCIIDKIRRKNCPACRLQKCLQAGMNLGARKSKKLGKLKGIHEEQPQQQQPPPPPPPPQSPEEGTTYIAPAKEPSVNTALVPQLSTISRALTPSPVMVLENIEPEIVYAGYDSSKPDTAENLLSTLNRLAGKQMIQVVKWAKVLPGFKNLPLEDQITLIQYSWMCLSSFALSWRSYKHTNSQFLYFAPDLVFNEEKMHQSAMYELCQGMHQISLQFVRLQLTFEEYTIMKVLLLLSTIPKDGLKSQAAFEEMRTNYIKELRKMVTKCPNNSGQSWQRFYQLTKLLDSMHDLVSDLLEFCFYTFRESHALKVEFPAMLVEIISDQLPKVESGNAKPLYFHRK
Nature of the experiment: Mineralocorticoid Receptor Binding Assay ([3H]-aldosterone). The following applies: [3H]-aldosterone binding, human MR expressed in Sf9 cells; read-out: MR Ki. In outline: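 Receptor source: freeze-thaw lysate of baculovirus-infected Sf9 cells carrying full-length human MR, 20-25 μg protein. Incubation ~16 h at 4 °C with shaking, pH 7.5 buffer containing 30 mM sodium molybdate and 10% glycerol.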

The target in experiment [2] is T2, glucocorticoid receptor (Homo sapiens, UniProt P04150).
T2 construct: containing 50-200 ug of A549 cell extract and 1.86 nM [^3H]-dexamethasone; host or cells: A549 human lung epithelial cells (sonicated cell extract)
T2 sequence (P04150 1-777): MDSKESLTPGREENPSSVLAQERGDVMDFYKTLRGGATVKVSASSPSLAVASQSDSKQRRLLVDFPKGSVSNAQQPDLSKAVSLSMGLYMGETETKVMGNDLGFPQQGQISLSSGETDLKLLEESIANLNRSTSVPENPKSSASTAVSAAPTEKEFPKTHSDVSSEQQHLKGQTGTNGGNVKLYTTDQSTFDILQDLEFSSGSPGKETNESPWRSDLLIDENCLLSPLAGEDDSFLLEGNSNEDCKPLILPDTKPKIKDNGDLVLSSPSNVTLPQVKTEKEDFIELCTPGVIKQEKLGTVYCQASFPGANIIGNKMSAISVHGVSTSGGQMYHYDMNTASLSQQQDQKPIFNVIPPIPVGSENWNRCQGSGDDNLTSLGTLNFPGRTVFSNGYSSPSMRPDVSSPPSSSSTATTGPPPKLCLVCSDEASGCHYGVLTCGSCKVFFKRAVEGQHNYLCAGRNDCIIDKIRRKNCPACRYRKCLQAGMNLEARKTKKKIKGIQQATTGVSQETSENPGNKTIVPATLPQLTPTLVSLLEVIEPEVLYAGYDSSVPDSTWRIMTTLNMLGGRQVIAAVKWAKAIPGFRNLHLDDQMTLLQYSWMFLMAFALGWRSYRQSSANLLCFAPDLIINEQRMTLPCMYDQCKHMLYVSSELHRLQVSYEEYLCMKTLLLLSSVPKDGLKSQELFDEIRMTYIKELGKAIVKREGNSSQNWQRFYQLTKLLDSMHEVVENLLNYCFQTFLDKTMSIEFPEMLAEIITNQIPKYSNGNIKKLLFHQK
Nature of the experiment: Glucocorticoid Receptor Binding Assay ([3H]-dexamethasone, A549 cell extract). The following applies: [3H]-dexamethasone binding, read-out: GR Ki. The gist of the method:
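Displacement of [3H]-dexamethasone (1.86 nM) from glucocorticoid receptor in sonicated A549 lung epithelial cell extracts, 16 h at 4 °C, pH 7.2 molybdate-containing buffer. Bound radioactivity was scintillation-counted after charcoal/dextran stripping of free ligand.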

For orientation: pKi means the Ki on a negative log10 scale, so that one unit is a factor of ten.

`Nc1n[nH]c2cc(C=C3c4ccccc4CCc4ccccc43)ccc12` [Example 444]: the pKi in experiment [1] and in experiment [2] was > 6.30 throughout.

Turning to `Nc1nc2ccc(C=C3c4ccccc4CCc4ccccc43)cc2[nH]1` [Example 445], the negative logarithm of the Ki (pKi) was > 6.30 in experiment [1] and > 5.00 in experiment [2].

`CS(=O)(=O)Nc1csc(C=C2c3ccccc3CCc3ccccc32)n1` [Example 446]: the pKi in experiment [1] and in experiment [2] was > 6.30 in each case.

Turning to `O=C1Cc2ccc(C=C3c4ccccc4CCc4ccccc43)cc2N1` [Example 447], the pKi in experiment [1] and in experiment [2] was > 6.30 throughout.

`O=c1[nH]c2ccc(/C=C3\c4ccccc4CCc4cc(F)ccc43)cc2[nH]1` [Example 448]: the pKi in experiment [1] is > 6.30; in experiment [2] it was > 5.00.

As for `O=c1[nH]c2ccc(/C=C3/c4ccccc4CCc4cc(F)ccc43)cc2[nH]1` [Example 449], the pKi is > 6.30 in experiment [1] and > 5.00 in experiment [2].

For `O=c1[nH]c2cc(/C=C3/c4ccccc4CCc4cc(F)ccc43)ccc2o1` [Example 450], the negative-log Ki (pKi) in experiment [1] and in experiment [2] was > 6.30 each time.

As for `O=c1[nH]c2cc(/C=C3\c4ccccc4CCc4cc(F)ccc43)ccc2o1` [Example 451], the negative-log Ki (pKi) in experiment [1] was > 6.30; in experiment [2], > 5.00.

`O=c1[nH]c2ccc(/C=C3/c4ccccc4CCc4cc(C(F)F)ccc43)cc2[nH]1` [Example 452]: the pKi in experiment [1] was > 6.30; in experiment [2], > 6.00.

`O=c1[nH]c2ccc(/C=C3\c4ccccc4CCc4cc(C(F)F)ccc43)cc2[nH]1` [Example 453]: the pKi in experiment [1] is > 6.30; in experiment [2], > 6.00.

As to `Cn1c(=O)[nH]c2cc(C=C3c4ccccc4CCc4ccccc43)ccc21` [Example 454], the negative logarithm of the Ki (pKi) in experiment [1] and in experiment [2] was > 6.30 throughout.

Regarding `N#Cc1ccc2c(c1)CCc1ccccc1/C2=C/c1ccc2[nH]c(=O)[nH]c2c1` [Example 455], the negative-log Ki (pKi) in experiment [1] is > 6.30; in experiment [2], > 5.00.

`N#Cc1ccc2c(c1)CCc1ccccc1/C2=C\c1ccc2[nH]c(=O)[nH]c2c1` [Example 456]: the results for the negative-log Ki (pKi) in experiment [1] and in experiment [2] were > 6.30 and > 5.00, respectively.

`O=c1[nH]c2cc(C=C3c4ccc(F)cc4CCc4cc(F)ccc43)ccc2s1` [Example 457]: the negative logarithm of the Ki (pKi) in experiment [1] and in experiment [2] was > 6.30 in each case.

As for `O=c1[nH]c2cc(C=C3c4ccc(F)cc4CCc4cc(F)ccc43)ccc2o1` [Example 458], the pKi in experiment [1] and in experiment [2] was > 6.30 each time.

In the case of `Cn1c(=O)[nH]c2cc(C=C3c4ccc(F)cc4CCc4cc(F)ccc43)ccc21` [Example 459], the figures for the pKi in experiment [1] and in experiment [2] were > 6.30 and > 6.00, respectively.

As to `Nc1n[nH]c2cc(C=C3c4ccc(F)cc4CCc4cc(F)ccc43)ccc12` [Example 460], the pKi in experiment [1] was > 6.30; in experiment [2] it was > 6.00.

Consider `Cn1c(=O)[nH]c2cc(/C=C3/c4ccccc4CCc4cc(F)ccc43)ccc21` [Example 461], for which the pKi in experiment [1] and in experiment [2] was > 6.30 each time.

Take `Cn1c(=O)[nH]c2cc(/C=C3\c4ccccc4CCc4cc(F)ccc43)ccc21` [Example 462]: the negative-log Ki (pKi) was > 6.30 in experiment [1] and > 6.00 in experiment [2].

`O=c1[nH]c2ccc(C=C3c4ccccc4CCc4cc(F)cc(F)c43)cc2[nH]1` [Example 463]: the negative-log Ki (pKi) in experiment [1] was > 6.30; in experiment [2], > 5.00.

`CC(C)n1c(=O)[nH]c2cc(C=C3c4ccc(F)cc4CCc4cc(F)ccc43)ccc21` [Example 464]: the results for the negative logarithm of the Ki (pKi) in experiment [1] and in experiment [2] were > 6.30 and > 5.00, respectively.

`O=c1[nH]c2ccc(/C=C3/c4ccccc4CCc4cccc(Cl)c43)cc2[nH]1` [Example 465]: the pKi in experiment [1] was > 6.30; in experiment [2], > 6.00.

Regarding `O=c1[nH]c2ccc(/C=C3\c4ccccc4CCc4cccc(Cl)c43)cc2[nH]1` [Example 466], the negative-log Ki (pKi) is > 6.30 in experiment [1] and > 6.00 in experiment [2].

As for `O=c1[nH]c2cc(C=C3c4ccccc4CCc4ccccc43)ccc2s1` [Example 467], the negative-log Ki (pKi) in experiment [1] and in experiment [2] was > 6.30 in each case.

As for `O=c1[nH]c2cc(/C=C3/c4ccccc4CCc4cc(F)ccc43)ccc2s1` [Example 468], the pKi in experiment [1] and in experiment [2] was > 6.30 each time.

Consider `O=c1[nH]c2cc(/C=C3\c4ccccc4CCc4cc(F)ccc43)ccc2s1` [Example 469], for which the pKi in experiment [1] and in experiment [2] was > 6.30 in each case.

With `O=c1[nH]c2ccc(C=C3c4cccc(F)c4CCc4c(F)cccc43)cc2[nH]1` [Example 470], the pKi is > 6.30 in experiment [1] and > 5.00 in experiment [2].

With `O=c1[nH]c2cc(C=C3c4cccc(F)c4CCc4c(F)cccc43)ccc2o1` [Example 471], the pKi in experiment [1] and in experiment [2] was > 6.30 throughout.

For the compound `O=c1[nH]c2ccc(/C=C3\c4ccccc4CCc4cc(C(F)(F)F)ccc43)cc2[nH]1` [Example 472], the pKi in experiment [1] was > 6.30; in experiment [2] it was > 5.00.

For the compound `O=c1[nH]c2ccc(/C=C3/c4ccccc4CCc4cc(C(F)(F)F)ccc43)cc2[nH]1` [Example 473], the negative-log Ki (pKi) in experiment [1] is > 6.30; in experiment [2] it was > 5.00.

As to `Fc1ccc2c(c1)CCc1ccccc1C2=Cc1cccnc1F` [Example 474], the figures for the pKi in experiment [1] and in experiment [2] were > 6.30 and > 6.00, respectively.

In the case of `CS(=O)(=O)Nc1cccc(/C=C2\c3ccccc3CCc3sccc32)c1` [Example 475], the negative-log Ki (pKi) in experiment [1] is > 6.30; in experiment [2], > 5.00.

As for `CS(=O)(=O)Nc1cccc(/C=C2/c3ccccc3CCc3sccc32)c1` [Example 476], the pKi in experiment [1] and in experiment [2] was > 6.30 each time.

For `Nc1cccc(C=C2c3ccccc3CCc3sccc32)c1` [Example 477, 3-(9,10-Dihydro-1-thia-benzo[f]azulen-4-ylidenemethyl)-phenylamine], the pKi was > 6.30 in experiment [1] and > 5.00 in experiment [2].

For the compound `Nc1cccc(/C=C2\c3ccc(Cl)cc3CCc3sccc32)c1` [Example 478, 3-(7-Chloro-9,10-dihydro-1-thia-benzo[f]azulen-4-ylidenemethyl)-phenylamine], the negative-log Ki (pKi) in experiment [1] is > 6.30; in experiment [2], > 5.00.

Turning to `CS(=O)(=O)Nc1cccc(/C=C2\c3ccccc3CCc3sc(Cl)cc32)c1` [Example 481, N-[3-(2-Chloro-9,10-dihydro-1-thia-benzo[f]azulen-4-ylidenemethyl)-phenyl]-methanesulfonamide], the pKi in experiment [1] and in experiment [2] was > 6.30 throughout.

As to `CS(=O)(=O)Nc1cccc(/C=C2\c3ccc(Cl)cc3CCc3sc(Cl)cc32)c1` [Example 482, N-[3-(2,7-Dichloro-9,10-dihydro-1-thia-benzo[f]azulen-4-ylidenemethyl)-phenyl]-methanesulfonamide], the pKi in experiment [1] and in experiment [2] was > 6.30 in each case.
